Source: ChEMBL document CHEMBL1201862, “PubChem BioAssay data set” (2004)
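Cultured in 96-well plates, cells were exposed to test compound for 48 hours across five concentrations. GI50 = concentration required for 50% inhibition of growth.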 The source made the active and inactive calls. Rule as the data show it: active = GI50 up to about 1.1 µM and inactive = higher.

What was measured:
Assay in all cases: DTP human tumour cell line panel, 48 h
[1] = tested on: SK-OV-3
[2] = tested on: NCI-H226
[3] = tested on: SK-MEL-2
[4] = tested on: OVCAR-8
[5] = tested on: NCI-H23
[6] = tested on: HCT-15
[7] = tested on: OVCAR-5
[8] = tested on: UACC-62
[9] = tested on: SW-620
[10] = tested on: PC-3
[11] = tested on: BT-549
[12] = tested on: CAKI-1
[13] = tested on: RXF 393
[14] = tested on: MCF7
[15] = tested on: HCT-116
[16] = tested on: OVCAR-3
[17] = tested on: KM12
[18] = tested on: DU-145
[19] = tested on: NCI-H522
[20] = tested on: SF-268
[21] = tested on: NCI/ADR-RES
[22] = tested on: TK-10
[23] = tested on: HT-29
[24] = tested on: SNB-19
[25] = tested on: A549
[26] = tested on: Malme-3M
[27] = tested on: SN12C
[28] = tested on: M14
[29] = tested on: LOX IMVI
[30] = tested on: MDA-MB-435
[31] = tested on: CCRF-CEM
[32] = tested on: MDA-MB-231
[33] = tested on: MOLT-4
[34] = tested on: UO-31
[35] = tested on: SF-295
[36] = tested on: ACHN
[37] = tested on: HL-60
[38] = tested on: COLO 205
[39] = tested on: K562
[40] = tested on: U-251
[41] = tested on: SK-MEL-5
[42] = tested on: RPMI-8226
[43] = tested on: NCI-H460
[44] = tested on: SF-539
[45] = tested on: MDA-N
[46] = tested on: SR
[47] = tested on: EKVX
[48] = tested on: IGROV-1
[49] = tested on: UACC-257

Measured: GI50

Oc1ccc(-c2nc3ccc(Br)cc3s2)cc1
inactive: [1] 19.5 µM | [2] 16.3 µM | [3] 17.9 µM | [4] 20.4 µM | [5] 22.1 µM | [7] 24 µM | [8] 13 µM | [9] 32.2 µM | [10] 19.2 µM | [11] 18.1 µM | [12] 15.7 µM | [13] 31.3 µM | [14] 4.85 µM | [15] 20 µM | [16] 14.3 µM | [17] 14.7 µM | [18] 16.9 µM | [19] 10.7 µM | [20] 16.3 µM | [21] 18.1 µM | [22] 17.3 µM | [23] 18.2 µM | [24] 23.3 µM | [25] 21.7 µM | [26] 27 µM | [27] 18.2 µM | [28] 18.9 µM | [29] 15.5 µM | [30] 21.1 µM | [31] 3.74 µM | [32] 16.3 µM | [33] 33.3 µM | [34] 14.5 µM | [35] 17.6 µM | [36] 22.2 µM | [37] 17 µM | [38] 15.9 µM | [39] 23.5 µM | [40] 20.4 µM | [41] 13.5 µM | [42] 15.1 µM | [43] 21.7 µM | [44] 14.8 µM | [45] 25.6 µM | [46] 10.3 µM | [47] 13 µM | [48] 12.9 µM | [49] 21.4 µM
20.3 µM: [6]
